# Results reported in publication PMC6445163, “Design, synthesis, and evaluation of novel 2-phenylpropionic acid derivatives as dual COX inhibitory-antibacterial agents” (Journal of Enzyme Inhibition and Medicinal Chemistry, 2017).
# Assays:
# [1] = test system: Enterococcus faecalis (ATCC 29212); test: broth microdilution MIC (CLSI M07-A9), resazurin; format: cell-based; details: ATCC29212, 24 h
# Description: (§1) Microbiological studies were performed according to following guides: CLSI reference […]-A9 broth microdilution method[49] for bacterial strains and EUCAST definitive (EDef 7.1) method[50] for Candida species. Synthesized compounds were tested for their in vitro growth inhibitory activity against Staphylococcus aureus (ATCC 25923), Enterococcus faecalis (ATCC 29212), Listeria monocytogenes (ATCC 1911), Klebsiella pneumoniae (NCTC 9633), Escherichia coli (ATCC 35218), E. coli (ATCC 25922) Candida albicans (ATCC 24433) Candida krusei (ATCC 6258) and Candida parapsilosis (ATCC 22019). Chloramphenicol and ketoconazole were used as control drugs. The cultures were obtained from the Mueller-Hinton broth (Difco) for the bacterial strains after overnight incubation at 37 °C. The yeasts were maintained in Roswell Park Memorial Institute (RPMI) after overnight incubation at 37 °C. […] Testing was carried out in Mueller-Hinton broth and RPMI at pH =7, and the two-fold serial dilutions technique was applied. The last well on the microplates containing only inoculated broth was kept as controls and the last well with no growth of microorganism was recorded to represent the minimum inhibitory concentration (MIC) expressed in μg/mL. For both the antibacterial and antifungal assays, the compounds were dissolved in DMSO. […] The completed plates were incubated for 24 h. At the end of the incubation, resazurin (20 μg/mL) was added into each well and plates were incubated for 2 h. MIC values were determined using a microplate reader at […]. Synthesized compounds (6a-6m) were evaluated for antimicrobial activity against various microorganisms such as Staphylococcus aureus (ATCC 25923), Enterococcus faecalis (ATCC 29212), Listeria monocytogenes (ATCC 1911), Klebsiella pneumoniae (NCTC 9633), Escherichia coli (ATCC 35218), E. coli (ATCC 25922)Candida albicans (ATCC 24433) Candida krusei (ATCC 6258) and Candida parapsilosis (ATCC 22019). […] Chloramphenicol and ketoconazole were used as standard drugs in the activity test. […] Besides, the compounds 6d, 6h, 6l and 6m indicated stronger antibacterial activity than the other compounds in the series.
# [2] = test system: Staphylococcus aureus (ATCC 25923); test: broth microdilution MIC (CLSI M07-A9), resazurin; format: cell-based; details: ATCC25923, 24 h
# Description: as §1
# [3] = test system: Escherichia coli (ATCC 25922); test: broth microdilution MIC (CLSI M07-A9), resazurin; format: cell-based; details: ATCC25922, 24 h, read-out: MIC Ec-2
# Description: as §1
# [4] = test system: Klebsiella pneumoniae (NCTC 9633); test: broth microdilution MIC (CLSI M07-A9), resazurin; format: cell-based; details: 24 h
# Description: as §1
# [5] = test system: Escherichia coli (ATCC 35218); test: broth microdilution MIC (CLSI M07-A9), resazurin; format: cell-based; details: for MIC: ATCC35218, 24 h, read-out: MIC Ec-1
# Description: as §1
# [6] = test system: Listeria monocytogenes (ATCC 1911); test: broth microdilution MIC (CLSI M07-A9), resazurin; format: cell-based; details: ATCC1911, 24 h
# Description: as §1
# COX-1 = target: T1, COX-1 (Ovis aries, UniProt P05979); test: fluorometric COX-1 inhibitor screening kit assay; format: biochemical; details: for SI (selectivity index): IC50 (COX-1)/IC50 (COX-2); for IC50: fluorometric kit, 25 °C; for Selectivity: isoform preferred according to SI
# T1 construct: purchased Biovision K548-100
# T1 sequence (P05979 25-600): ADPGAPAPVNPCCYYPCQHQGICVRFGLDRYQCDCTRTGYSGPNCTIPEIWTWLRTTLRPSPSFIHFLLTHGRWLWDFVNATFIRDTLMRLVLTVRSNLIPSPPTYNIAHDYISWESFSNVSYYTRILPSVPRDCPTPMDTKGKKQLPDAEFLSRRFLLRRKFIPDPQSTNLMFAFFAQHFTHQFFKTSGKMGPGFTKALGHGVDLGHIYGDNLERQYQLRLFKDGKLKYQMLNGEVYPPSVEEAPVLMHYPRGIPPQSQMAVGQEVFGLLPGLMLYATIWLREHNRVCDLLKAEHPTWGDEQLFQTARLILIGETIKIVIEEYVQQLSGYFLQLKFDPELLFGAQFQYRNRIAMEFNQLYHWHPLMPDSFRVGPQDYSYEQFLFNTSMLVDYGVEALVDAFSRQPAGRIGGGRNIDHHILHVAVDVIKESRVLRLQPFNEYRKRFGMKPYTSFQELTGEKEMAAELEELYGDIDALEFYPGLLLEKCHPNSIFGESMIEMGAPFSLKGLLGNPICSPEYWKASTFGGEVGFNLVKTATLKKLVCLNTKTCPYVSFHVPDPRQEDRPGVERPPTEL
# Description: (§2) Inhibitory potency of the compounds against COX-1 and COX-2 enzymes was determined using fluorometric COX-1 and COX-2 inhibitor screening kits (Biovision, Zurich, Switzerland). Experimental protocol was followed as described in the guides of the supplier[47]^,[48]. All of the pipettings in the assay were performed by Biotek Precision robotic system (BioTek Instruments, Inc., Winooski, VT). […] Appropriate two points (T1 and T2) in the linear range of the plot were chosen, and the corresponding fluorescence values (RFU1 and RFU2) were obtained. The slope for all samples, including enzyme control (EC), by dividing the net ΔRFU (RFU2–RFU1) values by the time ΔT (T2–T1) were calculated by using following equation: % Relative inhibition=(Slope of EC-Slope of S/Slope of EC)×100
# (§3) This initial in vitro assay was done with two concentrations (10^−3 and 10^−4 M) for all compounds. […] The IC50 value was calculated from the plots of enzyme activity against concentrations by applying regression analyses on GraphPad Prism Version 5 (GraphPad Software, La Jolla, CA).
# (§4) Selectivity indexes (SI) were expressed as IC50 (COX-1)/IC50 (COX-2). Selectivity toward COX-2 decreases as the corresponding SI decreases while selectivity toward COX-1 isoform increases as the corresponding SI decreases.
# COX-2 = target: T2, COX-2 (Homo sapiens, UniProt P35354); test: fluorometric COX-2 inhibitor screening kit assay; format: biochemical; details: 25 °C
# T2 construct: purchased Biovision K547-100
# T2 sequence (P35354 18-604): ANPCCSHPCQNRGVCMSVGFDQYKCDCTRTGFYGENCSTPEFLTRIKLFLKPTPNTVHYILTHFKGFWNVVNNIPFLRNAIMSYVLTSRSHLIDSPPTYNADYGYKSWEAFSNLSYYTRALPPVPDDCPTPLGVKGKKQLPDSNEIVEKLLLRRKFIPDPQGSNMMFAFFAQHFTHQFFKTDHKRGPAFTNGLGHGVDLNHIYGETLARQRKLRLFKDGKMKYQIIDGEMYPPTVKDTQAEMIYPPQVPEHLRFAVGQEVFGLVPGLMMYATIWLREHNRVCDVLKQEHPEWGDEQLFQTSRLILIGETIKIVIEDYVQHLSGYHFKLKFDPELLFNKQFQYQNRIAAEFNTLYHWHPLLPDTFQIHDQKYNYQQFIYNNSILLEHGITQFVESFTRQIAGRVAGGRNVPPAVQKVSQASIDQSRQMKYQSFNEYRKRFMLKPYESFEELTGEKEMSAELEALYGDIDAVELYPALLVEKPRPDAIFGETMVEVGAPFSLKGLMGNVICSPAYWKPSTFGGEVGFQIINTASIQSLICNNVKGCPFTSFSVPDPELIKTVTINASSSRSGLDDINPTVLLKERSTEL
# Description: as §2, §3, §4
# [7] = test system: Candida albicans (ATCC 24433); test: broth dilution MIC (EUCAST EDef 7.1), resazurin; format: cell-based; details: ATCC24433, 24 h
# Description: as §1
# [8] = test system: Candida parapsilosis (ATCC 22019); test: broth dilution MIC (EUCAST EDef 7.1), resazurin; format: cell-based; details: ATCC22019, 24 h
# Description: as §1
# [9] = test system: Candida krusei (ATCC 6258); test: broth dilution MIC (EUCAST EDef 7.1), resazurin; format: cell-based; details: Pichia kudriavzevii, ATCC6258, 24 h
# Description: as §1
SMILES,MIC [1] [µg/mL],MIC [2] [µg/mL],MIC [3] [µg/mL],MIC Kp [4] [µg/mL],MIC Ec-1 ([5]; 24 h) [µg/mL],MIC [5] [µg/mL],MIC [6] [µg/mL],SI (selectivity index) (COX-1),IC50 (COX-1) [µM],Selectivity (COX-1),IC50 (COX-2) [µM],MIC [7] [µg/mL],MIC [8] [µg/mL],MIC [9] [µg/mL],melting point [°C]
"O=C(N[C@H](CO)[C@H](O)c1ccc([N+](=O)[O-])cc1)C(Cl)Cl [Chloramphenicol, reference compound]",6.25,6.25,6.25,12.5,6.25,6.25,12.5,–,–,–,–,–,–,–,–
"Cc1ccc(C(C)C(=O)O)cc1 (stereo not drawn) [Compound 4, 2-(4-methylphenyl) propionic acid]",50,50,50,50,–,25,50,0.59,38.2,COX-1,64.3,100,50,50,–
"CC(C(=O)O)c1ccc(CSC2=NCCS2)cc1 (stereo not drawn) [Compound 6a, 2-(4-(((4,5-Dihydrothiazol-2-yl)thio)methyl)phenyl)propanoic acid]",12.5,12.5,12.5,6.25,–,6.25,12.5,0.59,22.2,COX-1,37.8,100,100,100,154.2 to 156.3
"CC(C(=O)O)c1ccc(CSc2nccn2C)cc1 (stereo not drawn) [Compound 6b, 2-(4-(((1-Methyl-1H-imidazol-2-yl)thio)methyl)phenyl)propanoic acid]",12.5,12.5,12.5,6.25,–,6.25,12.5,0.60,28.6,COX-1,47.4,100,50,100,–
"CC(C(=O)O)c1ccc(CSc2nc[nH]n2)cc1 (stereo not drawn) [Compound 6c, 2-(4-(((1H-1,2,4-Triazol-3-yl)thio)methyl)phenyl)propanoic acid]",12.5,12.5,12.5,12.5,–,6.25,12.5,0.53,19.5,COX-1,36.7,100,50,50,–
"CC(C(=O)O)c1ccc(CSc2nncn2C)cc1 (stereo not drawn) [Compound 6d, 2-(4-(((4-Methyl-4 H-1,2,4-triazol-3-yl)thio)methyl)phenyl)propanoic acid]",6.25,12.5,12.5,6.25,–,6.25,12.5,0.62,24.6,COX-1,39.9,50,50,50,–
"CC(C(=O)O)c1ccc(CSc2nnnn2C)cc1 (stereo not drawn) [Compound 6e, 2-(4-(((1-Methyl-1 H-tetrazol-5-yl)thio)methyl)phenyl)propanoic acid]",12.5,12.5,12.5,6.25,–,6.25,12.5,0.60,21.8,COX-1,36.3,50,50,50,–
"CC(C(=O)O)c1ccc(CSc2nc3ccccc3s2)cc1 (stereo not drawn) [Compound 6f, 2-(4-((Benzo[d]thiazol-2-ylthio)methyl)phenyl)propanoic acid]",12.5,12.5,12.5,12.5,–,6.25,12.5,0.54,2.36,COX-1,4.41,100,50,100,128.2 to 130.8
"CC(C(=O)O)c1ccc(CSc2nc3cc(Cl)ccc3s2)cc1 (stereo not drawn) [Compound 6g, 2-(4-(((5-Chlorobenzo[d]thiazol-2-yl)thio)methyl)phenyl)propanoic acid]",12.5,12.5,12.5,12.5,–,6.25,12.5,0.58,2.46,COX-1,4.25,100,50,100,162.3 to 164.7
"CC(=O)N1CCN(c2ccc(OCC3COC(Cn4ccnc4)(c4ccc(Cl)cc4Cl)O3)cc2)CC1 (stereo not drawn) [Ketoconazole, reference compound]",–,–,–,–,–,–,–,–,–,–,–,0.78,0.78,0.78,–
